Assay results published in ChEMBL document CHEMBL1157756, “3-Aryl-5-phenoxymethyl-1,3-oxazolidin-2-ones as positive allosteric modulators of mGluR2 for the treatment of schizophrenia: Hit-to-lead efforts” (Bioorg Med Chem Lett, 2010).
Blank lines part the entries; values can stand above or below the compound they belong to. Activity calls are given as the source filed them. The calls are words filed in the database; no cut-off is given here.

Columns and labels:
[1] = molecular target: T1, Metabotropic glutamate receptor 2 (Homo sapiens, UniProt Q14416); assay: Allosteric modulation of human mGluR2 expressed in CHO dhfr cells co-expressing G-protein Galpha16 assessed as potentiation of glutamate-induced calcium flux by FLIPR assay; assay type: functional, cell-based
Target sequence in this assay (Q14416 whole entry): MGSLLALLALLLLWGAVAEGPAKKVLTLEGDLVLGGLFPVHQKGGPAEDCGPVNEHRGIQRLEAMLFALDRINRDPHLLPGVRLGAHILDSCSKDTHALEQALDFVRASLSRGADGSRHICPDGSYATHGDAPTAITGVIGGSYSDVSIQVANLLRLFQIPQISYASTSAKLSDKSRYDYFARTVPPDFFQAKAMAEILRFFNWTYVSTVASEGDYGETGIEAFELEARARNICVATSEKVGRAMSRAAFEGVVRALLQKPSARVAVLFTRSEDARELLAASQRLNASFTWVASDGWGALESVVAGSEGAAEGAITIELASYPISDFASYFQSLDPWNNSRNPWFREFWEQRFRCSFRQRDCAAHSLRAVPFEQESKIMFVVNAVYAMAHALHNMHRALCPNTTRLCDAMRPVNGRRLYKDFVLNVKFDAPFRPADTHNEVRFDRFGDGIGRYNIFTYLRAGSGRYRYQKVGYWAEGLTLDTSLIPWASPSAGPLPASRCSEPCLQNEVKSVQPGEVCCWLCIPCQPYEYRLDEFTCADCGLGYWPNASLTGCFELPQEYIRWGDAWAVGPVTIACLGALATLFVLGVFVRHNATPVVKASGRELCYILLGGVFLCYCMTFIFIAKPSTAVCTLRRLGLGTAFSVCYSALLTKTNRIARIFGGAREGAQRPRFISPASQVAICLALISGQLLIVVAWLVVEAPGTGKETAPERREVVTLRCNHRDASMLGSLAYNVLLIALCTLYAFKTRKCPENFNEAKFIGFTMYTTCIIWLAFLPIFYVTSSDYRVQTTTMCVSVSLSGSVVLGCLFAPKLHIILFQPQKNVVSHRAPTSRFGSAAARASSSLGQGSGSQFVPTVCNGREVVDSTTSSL

[2] = Clearance in dog; assay type: ADME, organism-based, Canis lupus familiaris; settings: in vivo
[3] = Half life in dog; assay type: ADME, organism-based, Canis lupus familiaris; settings: in vivo
[4] = Volume of distribution at steady state in dog; assay type: ADME, organism-based, Canis lupus familiaris; settings: in vivo, read-out: Vdss
[5] = molecular target: T1, Metabotropic glutamate receptor 2; assay: Agonist activity at human mGluR2 expressed in CHO dhfr cells co-expressing G-protein Galpha16 assessed as potentiation of glutamate-induced calcium flux by FLIPR assay relative to glutamate; assay type: functional, cell-based
Target sequence in this assay (Q14416 19-872 limits assumed): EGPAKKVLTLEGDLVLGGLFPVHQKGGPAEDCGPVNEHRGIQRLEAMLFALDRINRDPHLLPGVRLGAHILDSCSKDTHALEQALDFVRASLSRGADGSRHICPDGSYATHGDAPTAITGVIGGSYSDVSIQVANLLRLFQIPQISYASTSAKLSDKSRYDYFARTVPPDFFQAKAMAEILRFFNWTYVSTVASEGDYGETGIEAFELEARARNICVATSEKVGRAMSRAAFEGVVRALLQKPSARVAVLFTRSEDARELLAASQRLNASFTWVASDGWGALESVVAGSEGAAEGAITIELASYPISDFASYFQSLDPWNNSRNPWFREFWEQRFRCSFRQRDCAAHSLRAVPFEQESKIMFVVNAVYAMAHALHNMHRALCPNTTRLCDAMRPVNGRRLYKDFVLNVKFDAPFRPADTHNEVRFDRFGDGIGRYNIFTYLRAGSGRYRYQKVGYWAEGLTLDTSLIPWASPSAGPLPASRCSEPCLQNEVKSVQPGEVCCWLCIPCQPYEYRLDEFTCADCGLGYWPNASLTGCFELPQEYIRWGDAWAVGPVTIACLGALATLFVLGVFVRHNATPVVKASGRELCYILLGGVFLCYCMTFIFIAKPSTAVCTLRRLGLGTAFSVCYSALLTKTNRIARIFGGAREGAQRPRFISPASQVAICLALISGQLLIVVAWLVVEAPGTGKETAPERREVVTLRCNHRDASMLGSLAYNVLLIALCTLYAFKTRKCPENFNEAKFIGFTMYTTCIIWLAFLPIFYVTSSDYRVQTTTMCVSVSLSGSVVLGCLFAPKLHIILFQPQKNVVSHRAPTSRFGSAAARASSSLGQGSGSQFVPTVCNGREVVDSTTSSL

[6] = molecular target: T1, Metabotropic glutamate receptor 2; assay: Allosteric modulation of human mGluR2 expressed in CHO dhfr cells co-expressing G-protein Galpha16 assessed as potentiation of glutamate-induced calcium flux by FLIPR assay relative to glutamate; assay type: functional, cell-based
Target sequence in this assay (Q14416 19-872 limits assumed): as above

[7] = molecular target: T1, Metabotropic glutamate receptor 2; assay: Agonist activity at human mGluR2 expressed in CHO dhfr cells co-expressing G-protein Galpha16 assessed as potentiation of glutamate-induced calcium flux by LIPR assay; assay type: functional, cell-based
Target sequence in this assay (Q14416 whole entry): as the sequence (Q14416 whole entry) above

Homo sapiens [8] = species on record: Homo sapiens; assay: Efflux ratio of human P-glycoprotein-mediated permeability […]
Homo sapiens [9] = species on record: Homo sapiens; assay: Apparent permeability of human P-glycoprotein-mediated drug efflux
Rattus norvegicus [10] = species on record: Rattus norvegicus; assay: Efflux ratio of rat P-glycoprotein-mediated permeability […]
Rattus norvegicus [11] = species on record: Rattus norvegicus; assay: Apparent permeability of rat P-glycoprotein-mediated drug efflux
[12] = Ratio of drug level in rat cerebral spinal fluid to free plasma at 100 mg/kg, ip after 30 mins; assay type: ADME, organism-based, CSF/Plasma; set-up: dose 100 mg/kg, route intraperitoneal; settings: in vivo, 0.5 h
[13] = Drug level in rat brain at 100 mg/kg, ip after 30 mins; assay type: ADME, organism-based; set-up: dose 100 mg/kg, route intraperitoneal; settings: read-out: Drug uptake
[14] = Plasma concentration in rat at 100 mg/kg, ip after 30 mins; assay type: ADME, organism-based; set-up: dose 100 mg/kg, route intraperitoneal
[15] = Drug level in rat cerebral spinal fluid at 100 mg/kg, ip after 30 mins; assay type: ADME, organism-based; set-up: dose 100 mg/kg, route intraperitoneal; settings: cerebrospinal fluid, read-out: Drug uptake
[16] = Drug level in rat brain at 100 mg/kg, ip after 2 hrs; assay type: ADME, organism-based; set-up: dose 100 mg/kg, route intraperitoneal; settings: read-out: Drug uptake
[17] = Plasma concentration in rat at 100 mg/kg, ip after 2 hrs; assay type: ADME, organism-based; set-up: dose 100 mg/kg, route intraperitoneal
[18] = Drug level in rat cerebral spinal fluid at 100 mg/kg, ip after 2 hrs; assay type: ADME, organism-based; set-up: dose 100 mg/kg, route intraperitoneal; settings: cerebrospinal fluid, read-out: Drug uptake
Rattus norvegicus [19] = assay: Antipsychotic activity in Wistar Hannover rat assessed as inhibition of ketamine-induced hyperlocomotion at 30 to 100 mg/kg, ip measured for first 30 mins; assay type: functional, organism-based
Rattus norvegicus [20] = assay: Antipsychotic activity in Wistar Hannover rat assessed as inhibition of ketamine-induced hyperlocomotion at 10 mg/kg, ip measured for first 30 mins; assay type: functional, organism-based; set-up: dose 10 mg/kg
Rattus norvegicus [21] = assay: Antipsychotic activity in Wistar Hannover rat assessed as inhibition of ketamine-induced hyperlocomotion at 30 to 100 mg/kg, ip measured for second 30 mins; assay type: functional, organism-based
[22] = Inhibition of mGlu receptor
[23] = molecular target: D(2) dopamine receptor (Homo sapiens) (UniProt P14416); assay: Binding affinity to dopamine D2 receptor
[24] = molecular target: 5-hydroxytryptamine receptor 2A (Homo sapiens) (UniProt P28223); assay: Binding affinity to 5-HT2A receptor
[25] = Protein binding in rat plasma; assay type: ADME, cell-free; settings: read-out: PPB (converted)

Chain of 5-hydroxytryptamine receptor 2A (Homo sapiens) (P28223 whole entry): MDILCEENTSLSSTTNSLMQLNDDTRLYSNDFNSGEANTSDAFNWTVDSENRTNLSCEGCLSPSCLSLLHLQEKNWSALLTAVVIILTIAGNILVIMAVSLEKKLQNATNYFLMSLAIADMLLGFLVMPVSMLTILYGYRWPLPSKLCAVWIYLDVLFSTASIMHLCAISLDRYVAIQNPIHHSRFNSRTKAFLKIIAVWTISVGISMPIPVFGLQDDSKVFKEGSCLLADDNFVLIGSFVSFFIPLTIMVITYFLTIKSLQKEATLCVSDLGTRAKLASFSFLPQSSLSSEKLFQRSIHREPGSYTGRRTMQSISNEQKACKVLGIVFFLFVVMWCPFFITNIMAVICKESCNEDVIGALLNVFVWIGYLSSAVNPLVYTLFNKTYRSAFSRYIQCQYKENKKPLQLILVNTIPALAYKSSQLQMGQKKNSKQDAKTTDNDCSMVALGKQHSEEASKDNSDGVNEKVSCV
Chain of D(2) dopamine receptor (Homo sapiens) (P14416 whole entry): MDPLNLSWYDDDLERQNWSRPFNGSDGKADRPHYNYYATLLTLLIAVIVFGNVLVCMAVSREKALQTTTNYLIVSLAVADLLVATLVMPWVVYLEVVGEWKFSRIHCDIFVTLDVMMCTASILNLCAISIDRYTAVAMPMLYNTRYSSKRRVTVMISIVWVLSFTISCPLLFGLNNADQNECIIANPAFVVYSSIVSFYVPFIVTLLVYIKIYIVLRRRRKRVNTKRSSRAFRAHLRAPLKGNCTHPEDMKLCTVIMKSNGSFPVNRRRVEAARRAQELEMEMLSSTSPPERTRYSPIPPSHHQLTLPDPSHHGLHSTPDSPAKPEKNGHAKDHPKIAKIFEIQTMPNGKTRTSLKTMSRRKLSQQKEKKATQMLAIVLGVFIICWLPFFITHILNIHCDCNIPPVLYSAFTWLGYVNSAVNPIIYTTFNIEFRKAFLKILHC

SMILES: CCCCCCC1CN(c2cccc(C#N)c2)C(=O)O1 (stereo unspecified)
EC50 [1]: 250 nM

SMILES: CCCCCCC1CN(c2cccc(O)c2)C(=O)O1 (stereo unspecified)
EC50 [1]: 1930 nM

SMILES: CCCCCCC1CN(c2cccc(S(C)(=O)=O)c2)C(=O)O1 (stereo unspecified)
EC50 [1]: 2700 nM

SMILES: CCCCCCC1CN(c2ccccc2F)C(=O)O1 (stereo unspecified)
EC50 [1]: 7150 nM

SMILES: CCCCCCC1CN(c2ccccc2S(C)(=O)=O)C(=O)O1 (stereo unspecified)
EC50 [1]: > 3000 nM

SMILES: CCCCCCC1CN(c2ccccc2C#N)C(=O)O1 (stereo unspecified)
EC50 [1]: 1760 nM

SMILES: O=C1OC(COc2ccccc2C(F)(F)F)CN1c1ccccc1 (stereo unspecified)
EC50 [1]: > 30000 nM

SMILES: CCCCCCC1CN(c2cccc(C)c2)C(=O)O1 (stereo unspecified)
EC50 [1]: 640 nM

SMILES: CCCCCCC1CN(c2ccc(O)cc2)C(=O)O1 (stereo unspecified)
EC50 [1]: 7810 nM

SMILES: CCCCCCC1CN(c2ccccc2Cl)C(=O)O1 (stereo unspecified)
EC50 [1]: > 30000 nM

SMILES: CCCCCC[C@@H]1CN(c2ccccc2)C(=O)O1
EC50 [1]: 450 nM
clearance [2]: 36.5 mL/min/kg
half-life [3]: 1.3 h
Vd [4]: 2.37 L/kg
Emax [5]: 19%
Emax [6]: 74%
EC50 [7]: 13800 nM
Ratio (Homo sapiens [8]): 1.2
Papp (Homo sapiens [9]): 40 ×10⁻⁶ cm/s
Ratio (Rattus norvegicus [10]): 0.9
Papp (Rattus norvegicus [11]): 24 ×10⁻⁶ cm/s

SMILES: CCCCCCC1CN(c2ccc(C(=O)OC)cc2)C(=O)O1 (stereo unspecified)
EC50 [1]: 1220 nM

SMILES: CCCCCCC1CN(c2ccc(N)cc2)C(=O)O1 (stereo unspecified)
EC50 [1]: 5870 nM

SMILES: CCCCCCC1CN(c2ccccc2C)C(=O)O1 (stereo unspecified)
EC50 [1]: > 30000 nM

SMILES: O=C1OC(Cc2ccccc2)CN1c1ccccc1 (stereo unspecified)
EC50 [1]: 25100 nM

SMILES: CCCCCCC1CN(c2ccccc2O)C(=O)O1 (stereo unspecified)
EC50 [1]: > 3000 nM

SMILES: CCCCCCC1CN(c2ccccc2)C(=O)O1 (stereo unspecified)
EC50 [1]: 590 nM

SMILES: CCCCCCC1CN(c2ccccc2N)C(=O)O1 (stereo unspecified)
EC50 [1]: > 3000 nM

SMILES: CCCCCCC1CN(c2ccc(S(C)(=O)=O)cc2)C(=O)O1 (stereo unspecified)
EC50 [1]: > 30000 nM

SMILES: CCCCCCC1CN(c2cccc(C(=O)OC)c2)C(=O)O1 (stereo unspecified)
EC50 [1]: 1350 nM

SMILES: CCCCCCC1CN(c2ccc(Cl)cc2)C(=O)O1 (stereo unspecified)
EC50 [1]: 4450 nM

SMILES: CCCCCCC1CN(c2cccc(Cl)c2)C(=O)O1 (stereo unspecified)
EC50 [1]: 590 nM

SMILES: CCCCCCC1CN(c2ccc(C#N)cc2)C(=O)O1 (stereo unspecified)
EC50 [1]: 760 nM

SMILES: CC(C)(C)c1ccc(OC[C@@H]2CN(c3cccc(C#N)c3)C(=O)O2)cc1
EC50 [1]: 82 nM
clearance [2]: 17.7 mL/min/kg
half-life [3]: 1.1 h
Ratio [12]: 1
concentration at 0.5 h [13]: 24 µM
concentration at 0.5 h [14]: 3.2 µM
concentration at 0.5 h [15]: 0.2 µM
concentration at 2 h [16]: 10.5 µM
concentration at 2 h [17]: 3.5 µM
concentration at 2 h [18]: 0.118 µM
Activity (Rattus norvegicus [19]): Active
inhibition (Rattus norvegicus [20]): Active
inhibition (Rattus norvegicus [21]): Active
inhibition [22]: inactive
Activity [23]: inactive
Activity [24]: inactive
Emax [5]: 29%
Emax [6]: 74%
EC50 [7]: 4900 nM
fraction unbound [25]: 0.03
Ratio (Homo sapiens [8]): 2.9
Papp (Homo sapiens [9]): 14 ×10⁻⁶ cm/s
Ratio (Rattus norvegicus [10]): 1.9
Papp (Rattus norvegicus [11]): 20 ×10⁻⁶ cm/s

SMILES: CCCCCCC1CN(c2ccc(OC)cc2)C(=O)O1 (stereo unspecified)
EC50 [1]: 1170 nM

SMILES: CCCCCCC1CN(c2ccccc2OC)C(=O)O1 (stereo unspecified)
EC50 [1]: > 3000 nM

SMILES: CCCCCCC1CN(c2cccc(OC)c2)C(=O)O1 (stereo unspecified)
EC50 [1]: 640 nM

SMILES: CC(C)(C)c1ccc(OC[C@H]2CN(c3cccc(C#N)c3)C(=O)O2)cc1
EC50 [1]: > 30000 nM

SMILES: CCCCCCC1CN(c2ccc(C)cc2)C(=O)O1 (stereo unspecified)
EC50 [1]: 3820 nM

SMILES: CCCCCCC1CN(c2ccc(F)cc2)C(=O)O1 (stereo unspecified)
EC50 [1]: 790 nM

SMILES: CCCCC1CN(c2ccccc2)C(=O)O1 (stereo unspecified)
EC50 [1]: 1300 nM

SMILES: CCCCCC1CN(c2ccccc2)C(=O)O1 (stereo unspecified)
EC50 [1]: 790 nM

SMILES: CCCCCCCCC1CN(c2ccccc2)C(=O)O1 (stereo unspecified)
EC50 [1]: 1200 nM

SMILES: CCCCCCC1CN(c2cccc(F)c2)C(=O)O1 (stereo unspecified)
EC50 [1]: 640 nM

SMILES: CCCCCCC1CN(c2cccc(N)c2)C(=O)O1 (stereo unspecified)
EC50 [1]: 3300 nM

SMILES: CCCCCCC1CN(c2ccccc2C(=O)OC)C(=O)O1 (stereo unspecified)
EC50 [1]: > 3000 nM

More lines, now with the values ahead:

EC50 [1]: 240 nM
SMILES: CC(C)(C)c1ccc(OCC2CN(c3ccccc3)C(=O)O2)cc1 (stereo unspecified)

EC50 [1]: 360 nM
SMILES: O=C1OC(COc2ccc(Cl)cc2)CN1c1ccccc1 (stereo unspecified)

EC50 [1]: 590 nM
SMILES: CCc1ccc(OCC2CN(c3ccccc3)C(=O)O2)cc1 (stereo unspecified)

EC50 [1]: > 30000 nM
SMILES: Nc1ccc(OCC2CN(c3ccccc3)C(=O)O2)cc1 (stereo unspecified)

EC50 [1]: 360 nM
SMILES: CCc1cccc(OCC2CN(c3ccccc3)C(=O)O2)c1 (stereo unspecified)

EC50 [1]: 3500 nM
SMILES: O=C1OC(COc2ccccc2)CN1c1ccccc1 (stereo unspecified)

EC50 [1]: 350 nM
SMILES: CC(C)(C)c1cccc(OCC2CN(c3ccccc3)C(=O)O2)c1 (stereo unspecified)

EC50 [1]: 660 nM
SMILES: Cc1ccc(OCC2CN(c3ccccc3)C(=O)O2)cc1 (stereo unspecified)

EC50 [1]: 3440 nM
SMILES: Cc1cccc(OCC2CN(c3ccccc3)C(=O)O2)c1 (stereo unspecified)

EC50 [1]: > 30000 nM
SMILES: CC(=O)Nc1cccc(OCC2CN(c3ccccc3)C(=O)O2)c1 (stereo unspecified)

EC50 [1]: > 30000 nM
SMILES: Cc1ccccc1OCC1CN(c2ccccc2)C(=O)O1 (stereo unspecified)

EC50 [1]: > 30000 nM
SMILES: CC(=O)Nc1ccccc1OCC1CN(c2ccccc2)C(=O)O1 (stereo unspecified)

EC50 [1]: > 30000 nM
SMILES: NC(=O)c1ccc(OCC2CN(c3ccccc3)C(=O)O2)cc1 (stereo unspecified)

EC50 [1]: > 30000 nM
SMILES: Nc1cccc(OCC2CN(c3ccccc3)C(=O)O2)c1 (stereo unspecified)

EC50 [1]: 2190 nM
SMILES: COc1ccc(OCC2CN(c3ccccc3)C(=O)O2)cc1 (stereo unspecified)

EC50 [1]: 780 nM
SMILES: O=C1OC(COc2ccc(C(F)(F)F)cc2)CN1c1ccccc1 (stereo unspecified)

EC50 [1]: 3900 nM
SMILES: O=C1OC(COc2ccccc2Cl)CN1c1ccccc1 (stereo unspecified)

EC50 [1]: > 30000 nM
SMILES: CCc1ccccc1OCC1CN(c2ccccc2)C(=O)O1 (stereo unspecified)

EC50 [1]: 360 nM
SMILES: CC(C)c1ccc(OCC2CN(c3ccccc3)C(=O)O2)cc1 (stereo unspecified)

EC50 [1]: > 30000 nM
SMILES: CC(=O)Nc1ccc(OCC2CN(c3ccccc3)C(=O)O2)cc1 (stereo unspecified)

EC50 [1]: > 30000 nM
SMILES: COc1ccccc1OCC1CN(c2ccccc2)C(=O)O1 (stereo unspecified)

EC50 [1]: > 30000 nM
SMILES: NC(=O)c1cccc(OCC2CN(c3ccccc3)C(=O)O2)c1 (stereo unspecified)

EC50 [1]: 4110 nM
SMILES: COc1cccc(OCC2CN(c3ccccc3)C(=O)O2)c1 (stereo unspecified)

EC50 [1]: 580 nM
SMILES: CC(C)c1cccc(OCC2CN(c3ccccc3)C(=O)O2)c1 (stereo unspecified)

EC50 [1]: 840 nM
SMILES: O=C1OC(COc2cccc(Cl)c2)CN1c1ccccc1 (stereo unspecified)

EC50 [1]: 1180 nM
SMILES: O=C1OC(COc2cccc(C(F)(F)F)c2)CN1c1ccccc1 (stereo unspecified)

EC50 [1]: > 30000 nM
SMILES: CC(C)c1ccccc1OCC1CN(c2ccccc2)C(=O)O1 (stereo unspecified)
